Reference: patent US8895568B2, “Compositions comprising substituted pteridines as agrochemicals” (Dow AgroSciences LLC, priority 2009, dated 2014)

Columns and labels:
Format in all cases: in vivo
Colletotricum lagenarium = experiment: Cucumber Anthracnose (COLLLA), foliar spray, percent disease control; details: foliar
[1] = tested on: DROSME, AEDSAE, LAPHEG, or HELIVI; experiment: Insecticidal activity, active if any of DROSME, AEDSAE, LAPHEG or HELIVI was controlled at 80% or more; details: read-out: >80% mortality on any insect species @ 4000 ppm
[2] = tested on: Pseudoperonospora cubensis; experiment: Cucumber Downy Mildew (PSPECU), foliar spray, percent disease control; details: foliar, read-out: PSPECU percent control
Cochliobolus sativus = experiment: Spot Blotch of Wheat (COCHSA), foliar spray, percent disease control; details: Bipolaris sorokiniana, foliar; read-out: COCHSA percent control

SMILES | pest or weed control at 200 µg/mL (Colletotricum lagenarium) | pest or weed control at 4000 ppm [1] | pest or weed control at 200 µg/mL [2] | pest or weed control at 200 µg/mL (Cochliobolus sativus)
Cc1c(CCNc2ncnc3nccnc23)ccc(Oc2ncc(C(F)(F)F)cc2F)c1C [Compound 148] | 0 to 49% | > 80% | 80 to 100% | 0 to 49%
COc1cc(CCNc2ncnc3nccnc23)ccc1Oc1cc(C(C)(F)F)ccn1 [Compound 170, (2-{4-[4-(1,1-difluoroethyl)-pyridin-2-yloxy]-3-methoxyphenyl}-ethyl)-pteridin-4-yl-amine] | 0 to 49% | > 80% | 80 to 100% | 0 to 49%
FC(F)c1ccnc(Oc2ccc(CCNc3ncnc4nccnc34)cc2)c1 [Compound 101] | 80 to 100% | > 80% | 80 to 100% | 0 to 49%
Fc1cc(C(F)(F)F)cnc1Oc1ccc(CCNc2ncnc3nccnc23)cc1 [Compound 54] | 80 to 100% | > 80% | 80 to 100% | 0 to 49%
Cc1ccc(Oc2ccc(CCNc3ncnc4nccnc34)cc2)nc1 [Compound 40] | 50 to 79% | > 80% | 80 to 100% | 0 to 49%
CC(Sc1ncnc2nccnc12)c1cccc(C(F)(F)F)c1 (centres unmarked) [Compound 79] | 0 to 49% | > 80% | 0 to 49% | 0 to 49%
Fc1cnc(Oc2ccc(CCNc3ncnc4nccnc34)cc2)c(F)c1 [Compound 107] | 0 to 49% | > 80% | 80 to 100% | 0 to 49%
Cc1cc(CCNc2ncnc3nccnc23)ccc1Oc1cc(C#N)ccn1 [Compound 155] | 50 to 79% | > 80% | 80 to 100% | 0 to 49%
FC(F)(F)c1cccc(Oc2ccc(CCNc3ncnc4nccnc34)cc2)n1 [Compound 6] | 0 to 49% | > 80% | 80 to 100% | 0 to 49%
FC(F)(F)c1ccc(Oc2ccc(OCCNc3ncnc4nccnc34)cc2)nc1 [Compound 84] | 80 to 100% | > 80% | 80 to 100% | 0 to 49%
FC(F)(F)c1ccnc(Oc2ccc(CCNc3ncnc4ncc(Cl)nc34)cc2)n1 [Compound 75] | 0 to 49% | > 80% | 0 to 49% | 0 to 49%
Cc1cnc2ncnc(NCCc3ccc(Oc4cc(C(F)(F)F)ccn4)cc3)c2n1 [Compound 76] | 0 to 49% | > 80% | 80 to 100% | 0 to 49%
Cc1ccnc(Oc2ccc(CCNc3ncnc4nccnc34)cc2)c1 [Compound 42] | 80 to 100% | > 80% | 80 to 100% | 0 to 49%
N#Cc1cccc(Oc2ccc(CCNc3ncnc4nccnc34)cc2)n1 [Compound 13] | 0 to 49% | > 80% | 80 to 100% | 0 to 49%
